The source made the active and inactive calls. No cut-off for these calls is given here.
Key:
Homo sapiens = organism: Homo sapiens; assay: Selectivity index, ratio of Ki for human TSPO A147T mutant expressed in HEK293 cell membranes to Ki for human TSPO expressed in HEK293 cell membranes; type: cell-based
Translocator protein = Translocator protein (Homo sapiens, UniProt P30536); assay: Displacement of [3H]PK11195 from wild-type human TSPO expressed in HEK293 cell membranes after 90 mins by scintillation counting method; set-up: species or system Cell membrane
Translocator protein, sequence (P30536 whole entry): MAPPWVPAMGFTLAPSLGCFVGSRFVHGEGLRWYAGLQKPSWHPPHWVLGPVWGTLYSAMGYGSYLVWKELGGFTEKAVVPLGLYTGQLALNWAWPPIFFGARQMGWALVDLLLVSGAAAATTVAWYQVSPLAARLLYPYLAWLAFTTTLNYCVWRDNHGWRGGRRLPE

| SMILES | Ki (Translocator protein) [nM] | Ratio Ki (Homo sapiens) |
| --- | --- | --- |
| CCN(CC)C(=O)c1nc2ccccc2n1Cc1ccc(Cl)cc1 | > 10000 | < 0.3 |
| C#CCN(C)C(=O)c1nc2ccccc2n1Cc1ccc(Cl)cc1 | > 10000 | inactive |
| CCN(CC)C(=O)Cn1c(-c2ccc(OC)cc2)nc2c(C)cc(C)cc21 | 208 | 4.2 |
| CCN(CC)C(=O)Cn1c(-c2ccc(OC)cc2)cc2c(C)cc(C)cc21 | 114 | 5.7 |
| C#CCN(C)C(=O)c1cc2cc(NS(C)(=O)=O)ccc2n1Cc1ccc(OC)cc1 | 1500 | 0.5 |
| CCN(CC)C(=O)c1cc2cc(C)ccc2n1Cc1cn[nH]n1 | > 10000 | inactive |
| CCN(CC)C(=O)c1cc2cc(C)ccc2n1Cc1ccc(O)cc1 | > 10000 | inactive |
| CN(Cc1ccccc1)C(=O)c1nc2ccccc2n1Cc1ccc(Cl)cc1 | > 10000 | inactive |
| CCN(CC)C(=O)c1nc2ccccc2n1Cc1ccc(OC)nc1 | > 10000 | inactive |
| C#CCN(C)C(=O)c1nc2ccccc2n1Cc1ccc(OC)cc1 | 3280 | > 3 |
| CCN(CC)C(=O)c1nc2ccccc2n1Cc1ccccc1 | > 10000 | inactive |
| CCN(CC)C(=O)c1nc2ccccc2n1Cc1ccc(OC)cc1 | 3060 | > 3.3 |
| C#CCN(C)C(=O)c1cc2cc(C)ccc2n1Cc1ccc(OC)nc1 | > 10000 | 0.1 |
| C#CCN(C)C(=O)c1cc2cc(NC(C)=O)ccc2n1Cc1ccc(OC)cc1 | 2070 | 1.4 |
| CCN(CC)C(=O)c1cc2cc(C)ccc2n1Cc1ccc(OCc2ccccc2)cc1 | > 10000 | inactive |

Continued, in another order:

| Ki (Translocator protein) [nM] | SMILES | Ratio Ki (Homo sapiens) |
| --- | --- | --- |
| 377 | CC(=O)N(Cc1ccc(OCc2ccccc2)cc1)c1cc(C)cc(C)c1 | 2 |
| 2240 | CCN(CC)C(=O)CN(Cc1ccc(OC(C)C)cc1)c1cc(C)cc(C)c1 | > 4.5 |
| 1200 | CCN(CC)C(=O)CN(Cc1ccc(OC)cc1)c1cc(C)cc(C)c1 | 3.5 |
| 500 | COc1ccc(CN(C(C)=O)c2cc(C)cc(C)c2)cc1 | 5.6 |
| 1010 | CCN(CC)C(=O)CN(Cc1ccccc1)c1cc(C)cc(C)c1 | 4.2 |
| 275 | CC(=O)N(Cc1ccccc1)c1cc(C)cc(C)c1 | 4.6 |
| 275 | CC(=O)N(Cc1ccc(OCCF)cc1)c1cc(C)cc(C)c1 | 14.3 |
| 433 | CCN(CC)C(=O)CN(Cc1ccc(OCc2ccccc2)cc1)c1cc(C)cc(C)c1 | 4.2 |
| 1290 | CCN(CC)C(=O)CN(Cc1ccc(OCCF)cc1)c1cc(C)cc(C)c1 | > 7.7 |
| 823 | CC(=O)N(Cc1ccc(OC(C)C)cc1)c1cc(C)cc(C)c1 | 3.8 |

Reference: ChEMBL document CHEMBL4699406, “Reversing binding sensitivity to A147T translocator protein” (RSC Med Chem, 2020)
